Tested on: Col1α2 mRNA expression in rat skin
Experiment: Col1α2 mRNA expression in rat model of skin fibrosis and wounding, intradermal treatment (Example 9)
Format: in vivo
Description: Scar and fibrotic tissues are mainly composed of collagen, especially collagen1α2 (Col1α2). Therefore, the expression of Col1α2 can be used as a marker for the severity of scarring, especially in skin. We have evaluated the ability of a TGF-beta1 ASO to suppress the expression of Col1α2 in rat skin subsequent to full-thickness skin wounding, an injury that typically leads to a 4-6 fold induction in Col1α2 expression.
On Day 1 of the study, a 0.8 centimeter biopsy punch was used to create full-thickness wounds on the back of anesthetized adult hairless rats. Two biopsies were performed on each rat's back; one in the lower left quadrant, and one in the upper right quadrant. The wounds were left open, but dressed with a sterile occlusive bandage, which were left in place for 24 hours.
Biopsy sites were treated intradermally with PBS (vehicle) or a 3 mg dose of a rat specific TGF-beta1 antisense oligonucleotide (Oligo ID 433849; SEQ ID NO. 166) on Days 1, 5, 9, and 13 post-biopsy. Animals were sacrificed on Day 14 post-biopsy. […]
A subset of the excised skin from each initial biopsy site was retained and prepared for Col1α2 mRNA expression (by RT-PCR). […] On day 15, animals were euthanized, a sample of skin from the center of the wound was obtained with a 0.5 cm biopsy punch, and Col1α2 mRNA expression determined.

Substance: 433849 (antisense GTCCTTAAATACAGCCCCGG; listed as DNA, chemistry not given here) [compound 433849]
- expression of Col1α2 in rat skin (3 mg intradermally on Days 1, 5, 9, 13 post-biopsy, day 14 after skin wounding): significantly reduced
- % Col1α2 mRNA compared to the unwounded control (hairless rats, full-thickness skin wound, 3 mg intradermal on Days 1, 5, 9, 13, day 14 after skin wounding): 83%
